The target in assay [1] is T1, aSMase (Rattus norvegicus, UniProt F7ETC0).
T1 construct: Crude preparations containing aSMase or nSMase were made from stripped rat brains; from tissue; host or cells: rat brain
T1 sequence (F7ETC0 1-626): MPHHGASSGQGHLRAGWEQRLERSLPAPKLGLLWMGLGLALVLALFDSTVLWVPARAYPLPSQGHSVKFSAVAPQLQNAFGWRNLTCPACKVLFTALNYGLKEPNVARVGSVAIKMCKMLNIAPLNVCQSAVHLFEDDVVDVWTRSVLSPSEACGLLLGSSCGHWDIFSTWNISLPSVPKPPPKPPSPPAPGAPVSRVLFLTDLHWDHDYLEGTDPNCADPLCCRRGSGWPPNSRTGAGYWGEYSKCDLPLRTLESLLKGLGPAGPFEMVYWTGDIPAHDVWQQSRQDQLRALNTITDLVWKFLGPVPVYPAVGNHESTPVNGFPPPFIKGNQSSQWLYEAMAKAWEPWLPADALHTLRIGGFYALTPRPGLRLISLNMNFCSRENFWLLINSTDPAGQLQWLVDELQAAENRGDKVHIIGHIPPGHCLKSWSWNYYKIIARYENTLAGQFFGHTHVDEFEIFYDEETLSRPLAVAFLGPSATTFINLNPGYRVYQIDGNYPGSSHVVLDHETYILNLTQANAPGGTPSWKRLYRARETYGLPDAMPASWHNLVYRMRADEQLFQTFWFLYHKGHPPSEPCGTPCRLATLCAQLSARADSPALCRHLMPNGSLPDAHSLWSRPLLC
Nature of the assay: fluorescent aSMase assay with HMU-PC substrate. It is filed as biochemical. The conditions noted are these: for IC50: read-out: IC50 inhibition of aSMase. Here is the method:
Enzyme assays: Crude preparations containing aSMase or nSMase were made from stripped rat brains, as described before. […] The fluorescent aSMase assay was performed in a 384-well-plate using the HMU-PC (6-Hexadecanoylamino-4-methylumbelliferyl-phosphorylcholine) substrate. Reaction mixtures consisted of 13.3 μL HMU-PC, 13.3 μL reaction-buffer (100 mM NaOAc, pH 5.2, 0.2% (w/v) Na—TC, […], 0.2% (v/v) Triton X-100) and 13.3 μL enzyme preparation. Inhibitors were added in various concentrations and the reactions were incubated for 3 hours at 37° C. in a plate reader (FLUOstar OPTIMA, BMG labtech). The fluorescence of HMU (6-Hexadecanoylamino-4-methylumbelliferone) was measured (excitation 380 nm, emission 460 nm) in real time. Assays using the radio-labelled sphingomyelin gave the same results.

The test system of assay [2] is α-galactosidase A (α-Gal A). The conditions noted are these: sub-inhibitory intracellular concentrations; cited from earlier work.
Assay [3] relates to isolated, ventilated and perfused rat lungs. The conditions noted are these: 10 μM; cited from earlier work.
Where [4] appears, read: read-out: Inhibition [%] at 20 μM (aSMase, initial phosphonate collection).
The mark [5] stands for this setting: read-out: Inhibition [%] at 20 μM (aSMase, initial bisphosphonate collection).

Here are results for 21 molecules from patent US20120178720A1, “Bisphosphonates as Inhibitors of Acid Sphingomyelinase” (priority 2009, published 2012).

Like-named read-outs stand apart in the source and are kept apart here.

In the case of `CCCCP(=O)(O)O` [Compound 2], the inhibition at 20 µM in assay [1] (setting [4]) was 2%.
Still for that read-out and setting: the result for `NC(CP(=O)(O)O)P(=O)(O)O` (centres unmarked) [Compound 3] reads 47%.
On to `O=P(O)(O)CN(CP(=O)(O)O)CP(=O)(O)O` [Compound 4], for which the inhibition at 20 µM in assay [1] (setting [4]) stood at 0%.
Turning to `O=P(O)(O)CN(CCN(CP(=O)(O)O)CP(=O)(O)O)CCN(CP(=O)(O)O)CP(=O)(O)O` [Compound 5], the inhibition at 20 µM in assay [1] (setting [4]) was -5%.
In the case of `NCCCCCC(O)(P(=O)(O)O)P(=O)(O)O` [Compound 6], the inhibition at 20 µM in assay [1] (setting [5]) worked out at 54%.
For the molecule `CCCCCC(N)(P(=O)(O)O)P(=O)(O)O` [Compound 7a], the IC50 in assay [1] is 4.66 ± 1.07 µM. Besides, in assay [1] (setting [5]), the inhibition at 20 µM came out at 92%.
`CCCCCCCC(N)(P(=O)(O)O)P(=O)(O)O` [Compound 7b]: in assay [1], the “aSMase inhibitory potency relative to PtdIns-3,5P2” value is listed as “about one order of magnitude more potent than PtdIns-3,5P2” and the IC50 was 0.04 ± 0.01 µM. In addition, the inhibition at 20 µM in assay [1] (setting [5]) turned out to be 93%.
With `CC(NCC(=O)O)(P(=O)(O)O)P(=O)(O)O` [Compound 8], the inhibition at 20 µM in assay [1] (setting [5]) came out at 62%.
With `CCCCNC(P(=O)(O)O)P(=O)(O)O` [Compound 9], in assay [1] (setting [5]), the inhibition at 20 µM stood at 76%.
Regarding `O=P(O)(O)C(Nc1ccccc1)P(=O)(O)O` [Compound 10], the inhibition at 20 µM in assay [1] (setting [5]) was 8%.
For the molecule `C=CCN(CC=C)C(P(=O)(O)O)P(=O)(O)O` [Compound 11], in assay [1] (setting [5]), the inhibition at 20 µM was determined as 32%.
The same measure, in the same setting: the result for `CC(C)CN(CC(C)C)C(P(=O)(O)O)P(=O)(O)O` [Compound 12] reads 2%.
Consider `O=P(O)(O)C(N(CO)CO)P(=O)(O)O` [Compound 13], for which the inhibition at 20 µM in assay [1] (setting [5]) was found to be 36%.
As to `CN(C)C(P(=O)(O)O)P(=O)(O)O` [Compound 14], the inhibition at 20 µM in assay [1] (setting [5]) amounted to 24%.
On to `CCCCCCCCCC(OP(=O)(OC)OC)P(=O)(OC)OC` (centres unmarked) [Compound 16, Decyl-1-dimethylphosphate-1-dimethylphosphohonate], for which, in assay [1], the “activity towards aSMase” value was “totally inactive” and the IC50 was > 100 µM.
As for `CCCCCCCCCC(OP(=O)(O)O)P(=O)(O)O` (centres unmarked) [Compound 17, Decyl-1,1-phosphate phosphonate], in assay [1], the “activity towards aSMase” value was “as active as its bisphosphonate analogue 15b” and the IC50 stood at 0.35 ± 0.06 µM.
In the case of `CCCCCC(N(C)C)(P(=O)(O)O)P(=O)(O)O` [Compound 19a], in assay [1], the IC50 amounted to 9.5 ± 4 µM.
Turning to `CCCCCCCCCC(N(C)C)(P(=O)(O)O)P(=O)(O)O` [Compound 19b, 1-dimethylaminodecyl-1,1-bisphosphonicacid], the IC50 in assay [1] worked out at 0.18 ± 0.03 µM.
The same measure, in the same setting: with `O=P(O)(O)C(O)(Cn1ccnc1)P(=O)(O)O` [Compound 20, zoledronic acid, reference compound] the figure was 5.08 ± 0.74 µM.
As for `OC[C@H]1NC[C@H](O)[C@@H](O)[C@H]1O` [DGJ, 1-deoxy-galactonojirimycin], the “stimulation of α-Gal A in cells” value in assay [2] is “seven- to eight-fold”.
For the molecule `CN(C)CCCN1c2ccccc2CCc2ccccc21` [imipramine], in assay [3], the “attenuation of PAF-induced oedema formation” value is “attenuated but not completely prevented oedema formation”.

By inhibition is commonly meant the relative decrease from the control value, in per cent. The term IC50 denotes the midpoint of a concentration-inhibition curve.
